Measured values reported in patent US8563516B2, “Foxp3 peptide vaccine” (OncoTherapy Science, Inc., priority 2007, dated 2013).

Assays:
HLA-A2 molecule = molecular target: T1, HLA-A2 molecule (Homo sapiens, UniProt P04439, D140Y/D185E/D98H/E176V/E277Q/G131W/G231S/I119V/I121R/I166T/I218V/L300P/L318F/N151K/N90K/P208A/P217A/Q86G/Q94H/R138H/R169H/T345S); experiment: CTL induction with Foxp3-9-252 substitutions restricted HLA-A*0201; format: cell-based; conditions: FIG. 7C; for IFN-gamma production compared with the control: positive wells
T1 construct: peripheral blood mononuclear cells (PBMCs) isolated from normal volunteer (HLA-A*2402 and/or HLA-A*0201); endogenous in cells; host or cells: monocyte-derived dendritic cells of HLA-A*0201 volunteers; T2 cells as stimulators in the read-out
Protocol: In FIG. 7C CTLs could be induced by stimulation with Foxp3-9-252 substitutions targeted HLA-A2 molecule. CTLs for all substituted peptides targeted HLA-A2 molecule were generated in the way as described in “Materials and Methods”. […] CTL line induced with Foxp3-9-252-9V peptide was used as responder cells. T2 cells incubated with Foxp3-9-252-9V (-solid circle-) or Foxp3-9-252-WT (-open circle-) peptide and without any peptide (-open square-) were used as stimulator cells in this assay (1×10^4 cells/well).
(§1) Monocyte-derived dendritic cells (DCs) were used as antigen-presenting cells (APCs) to induce CTL responses against peptides presented on HLA. DCs were generated in vitro as described elsewhere (Horiguchi S. et al. Cancer Res. 59:2950-6). Specifically, peripheral blood mononuclear cells (PBMCs) isolated from normal volunteer (HLA-A*2402 and/or HLA-A*0201) with Ficoll-Plaque (Pharmacia) solution were separated by adherence to plastic tissue culture dish (Becton Dickinson) so as to enrich them for the monocyte fraction. The monocyte-enriched population was cultured in the presence of 1000 U/ml of GM-CSF (R&D System) and 1000 U/ml of IL-4 (R&D System) in AIM-V medium (Invitrogen) containing 2% heat-inactivated autologous serum (AS). After 7 days in the culture, the cytokine-generated DCs were pulsed with 20 mcg/ml of the synthesized peptides in the presence of 3 mcg/ml of beta2-microglobulin for 4 hrs at 20 degrees C. in AIM-V medium. These peptide-pulsed DCs were then inactivated with mitomycin C (MMC) (30 mcg/ml for 30 mins) and mixed at a 1:20 ratio with autologous CD8+ T cells, obtained by positive selection with CD8 Positive Isolation Kit (Dynal). These cultures were set up in 48-well plates (Corning); each well contained 1.5×10^4 peptide-pulsed DCs, 3×10^5 CD8+ T cells and 10 ng/ml of IL-7 (R&D System) in 0.5 ml of AIM-V/2% AS. Three days later, these cultures were supplemented with IL-2 (CHIRON) to a final concentration of 20 IU/ml. On day 7 and 14, the T cells were further restimulated with the peptide-pulsed autologous DCs. The DCs were prepared each time through the same procedure described above. CTL activity was tested against peptide-pulsed A24LCL cells or T2 cells after the 3rd round of peptide stimulation on day 21.
(§2) To examine the specific CTL activity, IFN-gamma ELISPOT assay and IFN-gamma ELISA were performed. Briefly, peptide-pulsed A24-LCL, T2 cell (1×10^4/well) or the cells endogenously expressing Foxp3 and HLA molecule was prepared as a stimulator cells. Cultured CTL lines in 48 wells were used as a responder cells. IFN-gamma ELISPOT assay and IFN-gamma ELISA were performed under manufacture procedure.
On the other hand, the present inventers attempted the induction of CTLs using all substitutions restricted HLA-A*0201 including Foxp3-9-252-9V peptide. […] After CTL line induced by stimulation with Foxp3-9-252-9V was established by in vitro expansion, the CTL activity was determined by using stimulator cells pulsed with Foxp3-9-252-WT or Foxp3-9-252-9V peptide.

peptide-pulsed T2 cells = experiment: IFN-gamma ELISPOT on CTLs induced with HLA-A0201 restricted Foxp3 peptides; format: cell-based, human; conditions: FIG. 2A/2B/2C
Excerpt: as §1, §2
Resulting CTLs showing detectable specific CTL activity were shown in FIG. 2A, FIG. 2B and FIG. 2C when performed by IFN-gamma ELISPOT assay.

[1] = test system: peptide-pulsed A24LCL cells or T2 cells; experiment: In vitro CTL induction by peptide-loaded dendritic cells (summary statements); format: cell-based, human; conditions: for specific CTL activity: against peptide pulsed target cells; for establishment of CTLs: in vitro stimulation of T-cells by DCs loaded with peptide
Excerpt: Confirmation of CTL inducibility can be accomplished by inducing antigen-presenting cells carrying human MHC antigens (for example, B-lymphocytes, macrophages, and dendritic cells), or more specifically dendritic cells derived from human peripheral blood mononuclear leukocytes, and after stimulation with the peptides, mixing with CD8-positive cells, and then measuring the IFN-gamma produced and released by CTL against the target cells. As the reaction system, transgenic animals that have been produced to express a human HLA antigen (for example, those described in BenMohamed L, Krishnan R, Longmate J, Auge C, Low L, Primus J, Diamond D J, Hum Immunol 61(8): 764-79, 2000 August, Related Articles, Books, Linkout Induction of CTL response by a minimal epitope vaccine in HLA A*0201/DR1 transgenic mice: dependence on HLA class II restricted T(H) response) can be used. For example, the target cells can be radiolabeled with ^51Cr and such, and cytotoxic activity can be calculated from radioactivity released from the target cells. Alternatively, it can be examined by measuring IFN-gamma produced and released by CTL in the presence of antigen-presenting cells that carry immobilized peptides, and visualizing the inhibition zone on the media using anti-IFN-gamma monoclonal antibodies.
as §1, §2

[2] = test system: peptide-pulsed A24LCL cells; experiment: IFN-gamma ELISPOT on CTLs induced with HLA-A2402 restricted Foxp3 peptides; format: cell-based, human; conditions: FIG. 1A/1B
Excerpt: as §1, §2
CTLs for the peptides derived from Foxp3 protein were generated according to the method described in the “Materials and Methods”, supra.

Sequence | IFN-gamma production of CTLs stimulated with peptide, compared with the control (peptide-pulsed T2 cells) | specific CTL activity [1] | establishment of CTLs [1] | IFN-gamma production of CTLs stimulated with peptide, compared with the control [2] | also measured
KLLAMQAHL (peptide vaccine) [SEQ ID NO 98] | – | – | – | – | CTL induction by stimulation with substituted peptide (HLA-A2 molecule): CTLs were induced; IFN-gamma production compared with the control (HLA-A2 molecule; listed as Foxp3-9-252-3L): showed IFN-gamma production; IFN-gamma production compared with the control (HLA-A2 molecule; listed as Foxp3-A02-9-252-3L): peptide-dependent IFN-gamma production
SLFAVRRHL (peptide vaccine) [SEQ ID NO 19] | potent IFN-gamma production | significant and specific CTL activity | CTLs were successfully established | – | –
KMALTKASSV (peptide vaccine) [SEQ ID NO 24] | potent IFN-gamma production | significant and specific CTL activity | CTLs were successfully established | – | –
VMVAPSGARL (peptide vaccine) [SEQ ID NO 30] | potent IFN-gamma production | significant and specific CTL activity | CTLs were successfully established | – | –
IYHWFTRMF (peptide vaccine) [SEQ ID NO 3] | – | significant and specific CTL activity | CTLs were successfully established | potent IFN-gamma production | –
RTPVLQVHPL (peptide vaccine) [SEQ ID NO 12] | – | significant and specific CTL activity | CTLs were successfully established | potent IFN-gamma production | –
LVLEKEKLSA (peptide vaccine) [SEQ ID NO 37] | potent IFN-gamma production | significant and specific CTL activity | CTLs were successfully established | – | –
RPPFTYATL (peptide vaccine) [SEQ ID NO 8] | – | significant and specific CTL activity | CTLs were successfully established | potent IFN-gamma production | –
QLQLPTLPL (peptide vaccine) [SEQ ID NO 18] | potent IFN-gamma production | significant and specific CTL activity | CTLs were successfully established | – | –
KFHNMRPPF (peptide vaccine) [SEQ ID NO 5] | – | significant and specific CTL activity | CTLs were successfully established | potent IFN-gamma production | –
KLMAMQAHL (peptide vaccine) [SEQ ID NO 97] | – | – | – | – | CTL induction by stimulation with substituted peptide (HLA-A2 molecule): CTLs were induced; IFN-gamma production compared with the control (HLA-A2 molecule; listed as Foxp3-9-252-3M): showed IFN-gamma production; IFN-gamma production compared with the control (HLA-A2 molecule; listed as Foxp3-A02-9-252-3M): peptide-dependent IFN-gamma production
GINVASLEWV (peptide vaccine) [SEQ ID NO 29] | potent IFN-gamma production | significant and specific CTL activity | CTLs were successfully established | – | –
LLQREMVQSL (peptide vaccine) [SEQ ID NO 28] | potent IFN-gamma production | significant and specific CTL activity | CTLs were successfully established | – | –
VFEEPEDFL (peptide vaccine) [SEQ ID NO 4] | – | significant and specific CTL activity | CTLs were successfully established | potent IFN-gamma production | –
TLNEIYHWFT (peptide vaccine) [SEQ ID NO 22] | potent IFN-gamma production | significant and specific CTL activity | CTLs were successfully established | – | –
LQLPTLPLV (peptide vaccine) [SEQ ID NO 16] | potent IFN-gamma production | significant and specific CTL activity | CTLs were successfully established | – | –
WFTRMFAFF (peptide vaccine) [SEQ ID NO 7] | – | significant and specific CTL activity | CTLs were successfully established | potent IFN-gamma production | –
SYPLLANGV (peptide vaccine) [SEQ ID NO 9] | – | significant and specific CTL activity | CTLs were successfully established | potent IFN-gamma production | –
